# Measured values published in publication PMC10298982, “Stability Characterization of the Novel Anti-Cancer HM-10/10 HDL-Mimetic Peptide” (International Journal of Molecular Sciences, 2023).
# Where two headings read alike, the source gives them in different places.
# Legend:
# [1] = Stability in potassium phosphate buffers of pH 1.3, 5.5 and 7.4; assay type: physicochemical; conditions: potassium phosphate buffer; for remaining at 1 h, 2 µM: read-out: % Remaining at 60 min
# Method: The stability of HM-10/10 under varying pH conditions was determined by adding the compound to potassium phosphate buffers of pH 1.3 (acidic), 5.5 (slightly acidic), and 7.4 (physiological pH), with 7-Ethoxycoumarin used as a control article. Under acidic and slightly acidic conditions, the half-life of HM-10/10 could not be determined, as the percentage of HM-10/10 was higher at the end of the time course than at the beginning (Table 3, Figure 3). […] Samples were tested at 2 µM.
# The instrument was equipped with an electrospray ionization source (600 °C) operated in the positive-ion mode.
# in vitro [2] = conditions: human, plasma, pH 7.4
# Method: (§7) The supernatant was removed and incubated at 37 °C for at least 10 min before use. The pH of each matrix was checked and adjusted to pH 7.4 using 10% phosphoric acid or 1 N sodium hydroxide as necessary.
# (§8) Test and control article stock solutions were spiked (1.5 µL) into matrix (0.749 mL) to a final assay concentration of 2 µM and mixed. […] These tubes were sealed and incubated at 37 °C with shaking.
# (§9) The quenched samples were mixed briefly by vortexing and stored in a −20 °C freezer.
# (§10) Sample plates were stored refrigerated until analysis.
# (§11) The column was set to a temperature of 55 °C. […] The instrument was equipped with an electrospray ionization source (500 °C) operated in positive-ion mode.
# (§12) Peak area ratios for IS-normalized test article and control article counts were used to calculate the percent remaining relative to the time zero (T0) value. As appropriate, results were plotted and further analyzed to calculate half-life (T1/2) values.
# (§13) Mean peak ratios were used to calculate the percent remaining relative to the T0 value: % Remaining at Timex = (mean peak area ratio Tx/mean peak ratio T0) × 100.
# in vitro [3] = conditions: Sprague-Dawley, rat, plasma, pH 7.4
# Method: as §7, §8, §9, §10, §11, §12, §13
# in vitro [4] = conditions: beagle, dog, plasma, pH 7.4
# Method: as §7, §8, §9, §10, §11, §12, §13
# in vitro [5] = conditions: cynomolgus monkey, plasma, pH 7.4
# Method: as §7, §8, §9, §10, §11, §12, §13
# in vitro [6] = conditions: CD-1, mouse, plasma, pH 7.4
# Method: as §7, §8, §9, §10, §11, §12, §13
# CYP1A2 = CYP1A2 induction (mRNA expression) in single-donor human hepatocytes; assay type: in vitro ADME; conditions: 50 µM (control)
# Method: (§1) RNA isolation and quantification: E-Z 96 Total RNA Kit (Omega Bio-tek, Catalog No. R1034-02) was used for RNA isolation and Quant-iT RNA assay kit (ThermoFisher, Catalog No. Q33140) was used for RNA quantification. The plates were removed from a −80 °C freezer and equilibrated to room temperature. RNA was extracted using the manufacturer’s recommended protocol. Eighty-one microliters of 100% ethanol were added into each well containing 150 µL of lysed sample to make a final ethanol concentration at 35%.
# (§2) cDNA generation: For cDNA generation, a High-Capacity cDNA Reverse Transcription Kit (Applied Biosystems, Catalog No. 4319983) and QuantStudio 3 PCR system (Applied Biosystems) were used. In this step, 2X Reverse Transcription Master Mix was prepared using the contents of the kit. Then, 10 µL of total RNA was added to 10 µL of 2X Reverse Transcription Master Mix in a microplate and the plate was sealed. This plate was then run in a thermocycler to generate cDNA.
# (§3) Real time PCR: SsoAdvanced Universal SYBR® Green Supermix (BIO-RAD, Catalog No. 172-5270) and the QuantStudio 3 Real-Time PCR system (Applied Biosystems) were used to perform real-time PCR on the generated cDNA. In this step, a PCR mix was prepared using PCR Supermix, SYBR® primers for the targeted genes, and nuclease-free water. Two microliters of ten-fold diluted cDNA samples (5 µL of cDNA into 45 μL of nuclease-free water) were added to 8 µL of PCR Mix in a microplate and sealed. This plate was then run through the Real-Time PCR system to generate the mRNA expression data.
# (§4) • Human GAPDH • F: […] • R: […] • Human CYP1A2 • Unique Assay ID: qHsaCID0015160 • Chromosome Location: 15:75045562-75047256 • Human CYP2B6 • F: […] • R: […] • Human CYP3A4 • F: […] • R: […]
# CYP2C19 [7] = target: T1, CYP2C19 (Homo sapiens, UniProt P33261)
# T1 sequence (P33261 whole entry): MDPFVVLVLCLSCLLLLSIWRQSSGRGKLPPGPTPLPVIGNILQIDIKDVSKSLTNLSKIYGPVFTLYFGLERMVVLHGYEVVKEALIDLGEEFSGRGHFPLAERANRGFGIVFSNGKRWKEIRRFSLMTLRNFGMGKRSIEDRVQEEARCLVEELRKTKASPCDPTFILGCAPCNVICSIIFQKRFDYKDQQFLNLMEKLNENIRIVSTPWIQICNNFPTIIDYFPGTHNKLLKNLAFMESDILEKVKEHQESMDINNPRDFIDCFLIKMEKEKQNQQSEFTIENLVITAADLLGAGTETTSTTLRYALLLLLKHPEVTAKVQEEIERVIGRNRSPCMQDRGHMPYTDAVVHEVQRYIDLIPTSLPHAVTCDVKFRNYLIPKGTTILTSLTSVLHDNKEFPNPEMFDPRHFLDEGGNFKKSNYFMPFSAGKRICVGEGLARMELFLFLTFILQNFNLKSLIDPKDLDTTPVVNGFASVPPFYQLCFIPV
# CYP2C19 [8] = target: T1, CYP2C19; assay: in vitro; conditions: both, microsomes
# CYP2C19 [9] = target: T1, CYP2C19; assay: CYP450 time-dependent inhibition, CYP2C19, pooled human liver microsomes; conditions: Mephenytoin (2C19)
# CYP2D6 [10] = target: T2, CYP2D6 (Homo sapiens, UniProt P10635)
# T2 sequence (P10635 whole entry): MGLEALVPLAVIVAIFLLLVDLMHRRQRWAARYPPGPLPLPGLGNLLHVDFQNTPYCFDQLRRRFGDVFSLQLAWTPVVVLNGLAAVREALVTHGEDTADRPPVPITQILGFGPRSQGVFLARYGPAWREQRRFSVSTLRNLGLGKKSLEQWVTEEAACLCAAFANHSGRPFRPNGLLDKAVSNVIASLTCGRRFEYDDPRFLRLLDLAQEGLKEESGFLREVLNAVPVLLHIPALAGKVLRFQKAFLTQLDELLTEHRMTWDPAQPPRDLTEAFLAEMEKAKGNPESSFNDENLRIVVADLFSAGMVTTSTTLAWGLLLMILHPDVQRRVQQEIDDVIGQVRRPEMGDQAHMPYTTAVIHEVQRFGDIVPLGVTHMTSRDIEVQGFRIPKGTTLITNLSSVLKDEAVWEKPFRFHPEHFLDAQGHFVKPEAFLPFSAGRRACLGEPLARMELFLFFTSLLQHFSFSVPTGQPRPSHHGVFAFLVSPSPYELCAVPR
# CYP2D6 [11] = target: T2, CYP2D6; assay: in vitro; conditions: both, microsomes
# CYP2B6 [12] = assay: CYP2B6 induction (enzyme activity) in single-donor human hepatocytes; conditions: 1000 µM (positive control)
# Method: The transport medium was replaced with 200 μL of warm (37 °C) incubation medium (InVitroGRO HI, BioIVT Catalog No. Z99009) and the plate was placed in a humidified 5% carbon dioxide incubator at 37 °C for 24 h.
# In addition, test article vehicle (PBS) was added to warm (37°C) InVitroGRO HI Medium in a 5:95 (v:v) ratio. […] The plates were removed from the incubator and the hepatocytes were prepared for the induction assay by replacing the cell culture medium with medium containing either the test article, a control inducer, or vehicle control (200 µL per well). The hepatocyte plates were returned to the cell culture incubator and incubated for 24 h.
# On Day 3, induction was repeated following the same steps as described above for the previous day, and plates were returned to the cell culture incubator for an additional 24 h.
# After aliquots were taken to measure test article stability, all the remaining medium from each well in the hepatocyte plate was removed, all wells were washed once using 200 μL of blank assay buffer, and then 100 μL of the 1000-fold diluted substrate solutions were added to the appropriate wells. The assay plate was returned to the humidified 5% carbon dioxide incubator at 37 °C for 1 h incubation.
# At the end of the incubation time, 100 μL of mRNA lysis buffer was added to each well to stop the reaction. Fifty microliters of this reaction mixture were transferred into a new plate and quenched with 200 μL of ice-cold acetonitrile containing a CYP-specific stable labeled internal standard (250 ng/mL acetaminophen-d4, 250 ng/mL hydroxybupropion-d6, or 250 ng/mL hydroxytestosterone-d3). After removal of the aliquots from the plate for enzyme activity determination, the assay plates were sealed and stored in a −70 °C freezer until use for RT-PCR, mRNA analysis.
# For the induction assay samples, an aliquot (50 µL) of the supernatant was transferred to a new plate and diluted with 100 µL Milli-Q water. For the test article stability samples, an aliquot (50 µL) of the supernatant was transferred to a new plate and diluted with 60 µL 0.1% formic acid in Milli-Q water. These samples for the enzyme activity assay and article stability test were refrigerated for storage until analysis. […]
# HM1010: Induction Potential of Cytochrome P450 Enzymes
# (CYP1A2, CYP2B6 and CYP3A4) Using Human Cryopreserved Hepatocytes
# Testing Facility Study No.
# The purpose of this in-vitro study was to determine the induction potential of HM1010 on human
# cytochrome P450 (CYP) isoenzyme (1A2, 2B6 and 3A4) activity. The study design is
# Matrix: Inducible cryopreserved human hepatocytes three single-donor lots
# Assay Buffer: InVitroGRO KHB
# Substrates: Phenacetin (1A2), Bu propion (2B6), and Testosterone (3A4)
# Assay conditions: 48 hours at 37°C in humidified 5% carbon dioxide incubator
# Analysis: LC-MS/MS (enzyme activity) and mRNA analysis
# CYP2B6 [13] = assay: CYP2B6 induction (mRNA expression) in single-donor human hepatocytes; assay type: in vitro ADME; conditions: 1000 µM (control)
# Method: as §1, §2, §3, §4
# [14] = Stability in simulated gastric fluid (SGF); assay type: in vitro ADME; conditions: SGF pH 1.3
# Method: (§5) When developing any potentially oral-route pharmaceutical agent, the denaturing and pepsin-rich environment of the stomach must be considered. The stability of HM-10/10 was tested in simulated gastric fluid (SGF) and simulated intestinal fluid (SIF) over 120 min. […] Samples were tested at 2 μM.
# (§6) For the HM-10/10 stability assay in simulated gastric and intestinal fluids, propantheline was used to confirm retention time and carbutamide was used as the internal standard for calculations.
# [15] = Stability in simulated intestinal fluid (SIF); assay type: in vitro ADME; conditions: simulated intestinal fluid (SIF), SIF pH 5.5
# Method: as §5, §6
# CYP2C8 = target: T3, CYP2C8 (Homo sapiens, UniProt P10632); assay: CYP450 time-dependent inhibition, CYP2C8, pooled human liver microsomes; conditions: Amodiaquine (2C8)
# T3 sequence (P10632 1-490): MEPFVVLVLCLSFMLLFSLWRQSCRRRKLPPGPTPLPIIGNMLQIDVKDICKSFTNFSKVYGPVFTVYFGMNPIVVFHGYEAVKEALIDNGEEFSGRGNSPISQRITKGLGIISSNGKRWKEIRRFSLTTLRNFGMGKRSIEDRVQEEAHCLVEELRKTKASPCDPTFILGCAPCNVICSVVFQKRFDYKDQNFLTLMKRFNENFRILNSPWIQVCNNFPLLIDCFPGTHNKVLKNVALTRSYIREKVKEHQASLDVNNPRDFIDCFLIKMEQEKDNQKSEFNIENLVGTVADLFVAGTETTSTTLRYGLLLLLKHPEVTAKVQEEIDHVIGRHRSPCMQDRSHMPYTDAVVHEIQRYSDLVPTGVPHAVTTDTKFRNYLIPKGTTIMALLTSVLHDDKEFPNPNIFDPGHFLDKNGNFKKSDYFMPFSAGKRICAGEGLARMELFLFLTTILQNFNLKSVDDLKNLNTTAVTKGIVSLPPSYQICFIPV
# CYP2C9 = CYP2C9 (Homo sapiens, UniProt P11712)
# Sequence of CYP2C9 (P11712 whole entry): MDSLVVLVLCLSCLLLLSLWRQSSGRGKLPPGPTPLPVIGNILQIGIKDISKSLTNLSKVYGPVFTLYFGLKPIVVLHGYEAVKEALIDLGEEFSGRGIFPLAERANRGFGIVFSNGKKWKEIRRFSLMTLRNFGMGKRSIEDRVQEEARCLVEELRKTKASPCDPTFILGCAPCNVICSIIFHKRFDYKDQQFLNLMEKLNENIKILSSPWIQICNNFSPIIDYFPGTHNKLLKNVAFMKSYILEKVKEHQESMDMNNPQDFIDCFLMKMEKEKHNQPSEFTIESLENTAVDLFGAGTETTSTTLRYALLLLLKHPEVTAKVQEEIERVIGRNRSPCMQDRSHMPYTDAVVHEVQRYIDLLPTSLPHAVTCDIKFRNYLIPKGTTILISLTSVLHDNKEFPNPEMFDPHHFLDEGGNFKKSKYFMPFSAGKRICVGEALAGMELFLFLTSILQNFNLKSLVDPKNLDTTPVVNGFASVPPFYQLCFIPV
# [16] = pH 7.4, % Inhibition at 50 µM No PI + NADPH
# [17] = pH 7.4, % Inhibition at 50 µM No PI − NADPH
# [18] = pH 7.4, % Inhibition at 50 µM PI + NADPH
# [19] = pH 7.4, % Inhibition at 50 µM PI − NADPH
# [20] = both, human, microsomes, pH 7.4
smiles,measurement,setting,value
"CCOc1ccc2ccc(=O)oc2c1 [7-Ethoxycoumarin, reference compound]",half-life at 2 µM,[1]; Acidic (pH 1.3),13.5 h
same,"remaining at 1 h, 2 µM",[1]; Acidic (pH 1.3),89%
same,half-life at 2 µM,[1]; Physiological pH (pH 7.4),11.8 h
same,"remaining at 1 h, 2 µM",[1]; Physiological pH (pH 7.4),87.5%
same,half-life at 2 µM,[1]; Slightly Acidic (pH 5.5),16.5 h
same,"remaining at 1 h, 2 µM",[1]; Slightly Acidic (pH 5.5),90%
"CC[C@H](C)C(=O)O[C@H]1C[C@@H](C)C=C2C=C[C@H](C)[C@H](CC[C@@H]3C[C@@H](O)CC(=O)O3)[C@H]21 [Lovastatin, lovastatin]",half-life at 2 µM,in vitro [2],10.8 h
same,"remaining at 2 h, 2 µM",in vitro [2],81.1%
same,half-life at 2 µM,in vitro [3],0.138 h
same,half-life at 2 µM,in vitro [4],7.42 h
same,"remaining at 2 h, 2 µM",in vitro [4],73.2%
same,half-life at 2 µM,in vitro [5],> 2 h
same,"remaining at 2 h, 2 µM",in vitro [5],115%
same,half-life at 2 µM,in vitro [6],0.24 h
"COc1ccc2[nH]c([S+]([O-])Cc3ncc(C)c(OC)c3C)nc2c1 (stereo not shown) [Omeprazole, omeprazole]",Comments (mRNA induction),CYP1A2,Induced as Expected
same,Comments (time-dependent inhibition),CYP2C19 [7],+TDI
same,"inhibition at 30 min, 50 µM",CYP2C19 [8]; [16],92.9%
same,"inhibition at 30 min, 50 µM",CYP2C19 [8]; [17],93.1%
same,"inhibition at 30 min, 50 µM",CYP2C19 [8]; [18],95.8%
same,"inhibition at 30 min, 50 µM",CYP2C19 [8]; [19],90.7%
same,IC50,"CYP2C19 [9]; IC50 (µM) No PI + NADPH, No PI + NADPH",4.77 µM
same,IC50,"CYP2C19 [9]; IC50 (µM) No PI − NADPH, No PI − NADPH",5.39 µM
"Fc1ccc([C@@H]2CCNC[C@H]2COc2ccc3c(c2)OCO3)cc1 [Paroxetine, paroxetine]",Comments (time-dependent inhibition),CYP2D6 [10],+TDI
same,"inhibition at 30 min, 50 µM",CYP2D6 [11]; [16],99%
same,"inhibition at 30 min, 50 µM",CYP2D6 [11]; [17],99.1%
same,"inhibition at 30 min, 50 µM",CYP2D6 [11]; [18],100%
same,"inhibition at 30 min, 50 µM",CYP2D6 [11]; [19],99%
"CCC1(c2ccccc2)C(=O)NC(=O)NC1=O [Phenobarbital, phenobarbital, reference compound]",Fold Increase (Enzyme Activity) Lot HH1086,CYP2B6 [12],11.8 fold
same,Fold Increase (Enzyme Activity) Lot HH1142,CYP2B6 [12],21.4 fold
same,Fold Increase (Enzyme Activity) Lot HH1144,CYP2B6 [12],7.23 fold
same,Fold Increase (Enzyme Activity) Mean,CYP2B6 [12]; mean of three lots,13.5 fold
same,Comments (mRNA induction),CYP2B6 [13],Induced as Expected
same,Fold Increase (mRNA Expression) Lot HH1086,CYP2B6 [13],15.5 fold
same,Fold Increase (mRNA Expression) Lot HH1142,CYP2B6 [13],22.3 fold
same,Fold Increase (mRNA Expression) Lot HH1144,CYP2B6 [13],7.54 fold
same,Fold Increase (mRNA Expression) Mean of 3 Lots,CYP2B6 [13],15.1 fold
"CC(C)[N+](C)(CCOC(=O)C1c2ccccc2Oc2ccccc21)C(C)C [Propantheline, propantheline]",half-life at 2 µM,[14],8.7 h
same,half-life at 2 µM,[15],13.6 h
same,half-life at 2 µM,in vitro [2],0.76 h
same,"remaining at 2 h, 2 µM",in vitro [2],13.3%
same,half-life at 2 µM,in vitro [3],77.5 h
same,"remaining at 2 h, 2 µM",in vitro [3],95%
same,half-life at 2 µM,in vitro [4],4.1 h
same,"remaining at 2 h, 2 µM",in vitro [4],65.7%
same,half-life at 2 µM,in vitro [5],11.1 h
same,"remaining at 2 h, 2 µM",in vitro [5],80.3%
same,half-life at 2 µM,in vitro [6],1.17 h
same,"remaining at 2 h, 2 µM",in vitro [6],27%
"O=c1c(O)c(-c2ccc(O)c(O)c2)oc2cc(O)cc(O)c12 [Quercetin, quercetin]",Comments (time-dependent inhibition),CYP2C8,No TDI
same,% Inhibition at 50 µM No PI + NADPH,"CYP2C8; 50 µM, No PI + NADPH",100.5%
same,% Inhibition at 50 µM No PI − NADPH,"CYP2C8; 50 µM, No PI − NADPH",100.9%
same,% Inhibition at 50 µM PI + NADPH,"CYP2C8; 50 µM, PI + NADPH",100.8%
same,% Inhibition at 50 µM PI − NADPH,"CYP2C8; 50 µM, PI − NADPH",100.5%
"Nc1ccc(S(=O)(=O)Nc2ccnn2-c2ccccc2)cc1 [Sulfaphenazole, sulfaphenazole]",Comments (time-dependent inhibition),CYP2C9,No TDI
same,% Inhibition at 50 µM No PI + NADPH,CYP2C9; [20],99.2%
same,% Inhibition at 50 µM No PI − NADPH,CYP2C9; [20],99.1%
same,% Inhibition at 50 µM PI + NADPH,CYP2C9; [20],99.7%
same,% Inhibition at 50 µM PI − NADPH,CYP2C9; [20],99.9%
